In US20260256780A1, “COMPOSITIONS FOR INDUCING RAS GTP HYDROLYSIS AND USES THEREOF” (Revolution Medicines, Inc., priority 2023, published 2026):

Experiments:
[1] = biological target: T1, KRAS^WT-RAF1 RBD complex (Homo sapiens, UniProt P01116); assay: Intracellular RAS-RAF complex reporter assay (nanoBRET) in U2OS cells, KRAS^WT; assay type: cell-based; details: 4 hours
T1 construct: expressed in transfected cells; host or cells: U2OS
Procedure: A cellular assay was used to measure complexes between KRAS proteins and the RAS-binding domain (RBD) of the RAF1 kinase by nanoluciferase bioluminescence energy transfer (nanoBRET™) U2OS cells were seeded at confluence in the 3 mL of DMEM supplemented with 10% fetal bovine serum and 1% penicillin/streptomycin (approximately 1 million cells per well). […] The following day, Vivazine™ nanoluciferase substrate and compounds were added at the indicated concentration. After 4 hours of incubation, the emitted light at 460 and 618 nm was measured using a PerkinElmer Envision plate reader. The luminescence intensity at 618 nm relative to 460 nm is proportional to the number of complexes between the KRAS protein and the RBD of RAF1, a surrogate measure of the levels of active KRAS.

[2] = test system: complexes between KRAS proteins and the RAS-binding domain (RBD) of the RAF1 kinase; assay: Intracellular RAS-RAF complex reporter assay (nanoBRET) in U2OS cells, multiple KRAS variants; assay type: cell-based; details: 4 hours
Procedure: A cellular assay was used to measure complexes between KRAS proteins and the RAS-binding domain (RBD) of the RAF1 kinase by nanoluciferase bioluminescence energy transfer (nanoBRET™) U2OS cells were seeded at confluence in the 3 mL of DMEM supplemented with 10% fetal bovine serum and 1% penicillin/streptomycin (approximately 1 million cells per well). The following day, each well was transfected with 50 ng of a plasmid encoding N-terminal nanoluciferase-tagged KRAS4B and 2950 ng of a plasmid encoding a C-terminal HaloTag® RAF1 RBD (residues 51-149) using FuGENE HD reagent according to manufacturer instructions. The following day, each transfected cell pool was transferred to 36 wells of a white 96-well plate in media consistiting of OptiMem phenol-red free supplemented with 4% fetal bovine serum, 1% penicillin/streptomycin, and 100 nM of HaloTag® NanoBRET™ 618 Ligand. The following day, Vivazine™ nanoluciferase substrate and compounds were added at the indicated concentration. After 4 hours of incubation, the emitted light at 460 and 618 nm was measured using a PerkinElmer Envision plate reader. The luminescence intensity at 618 nm relative to 460 nm is proportional to the number of complexes between the KRAS protein and the RBD of RAF1, a surrogate measure of the levels of active KRAS.

[3] = biological target: T2, GTP-loaded KRAS proteins (residue 1-169 of KRAS4B) (Homo sapiens, UniProt P01116, G12V); assay: RAS GTP hydrolysis rate assay (GTPase-Glo) with cyclophilin A; assay type: biochemical; details: bound in tri-complex with cyclophilin A; in some embodiments KRAS^G12V is the isoform used
T2 construct: recombinant KRAS proteins (residue 1-169 of KRAS4B); His6 (TEV protease-cleavable) (cleaved yes); made in house; host or cells: E. coli
Procedure: (§1) The rate of RAS GTP hydrolysis was assayed in the presence of various KRAS mutations. To assess GTP hydrolysis activity, recombinant KRAS proteins (residue 1-169 of KRAS4B) were expressed in E. coli and purified using a TEV protease-cleavable His6-tag and Ni^2+ affinity chromatography. The His6 tag was removed by treatment with TEV protease, and the KRAS protein was isolated by passing through a second Ni^2+ column followed by size exclusion chromatography. The purified KRAS proteins were loaded with GTP by incubation for 2 hours on ice with 2 mM GTP and 10 mM Ethylenediaminetetraacetic Acid, followed by addition of 10 mM MgCl2 and incubation on ice for 1 additional hour. The excess GTP was removed by overnight dialysis against buffer (12.5 mM HEPES, 75 mM NaCl, pH 7.5) at 4° C. The GTP-loaded KRAS protein were flash frozen in liquid nitrogen, then stored at −80° C. until use.
(§2) GTP-loaded KRAS proteins (1 μM) were combined with 25 μM of recombinant human cyclophilin A and 10 μM of compound in reaction buffer (12.5 mM HEPES, 75 mM NaCl, 1 mM MgCl2, 1 mM DTT, 1% DMSO, pH 7.5) pre-warmed to 37° C. At fixed time points, aliquots were removed and quenched by heating to 80° C. to denature the proteins, then centrifuged to pellet the protein precipitate. The supernatant was assessed for GTP levels using Promega GTPase-Glo™ according to manufacturer instructions. The levels of GTP as a function of incubation time were fit to a single phase exponential decay to determine the rate constant for hydrolysis activity.

[4] = test system: GTP-loaded KRAS proteins (residue 1-169 of KRAS4B); assay: as above; assay type: biochemical; details: all RAS mutants except those with mutations of the Q61 residue; 10 μM compound, 25 μM cyclophilin A, 37° C.
Procedure: as §1, §2

potency for inhibition of RAS-RAF complexes vs KRAS^WT, relative to the other KRAS variants [1]: modestly lower potency
hydrolyzer class: RAS(ON) GTP hydrolysis rate relative to the intrinsic hydrolysis rate [3]: 8 (Compound E) Moderate
RAS GTP hydrolysis in various RAS mutants in the presence of compound [4]: increased hydrolysis
SMILES: CCn1c(-c2cc(N3CCN(C4CC4)CC3)cnc2[C@H](C)OC)c2c3cc(ccc31)-c1csc(n1)C[C@H](NC(=O)[C@H]1[C@@H]3COC[C@@H]31)C(=O)N1CCC[C@H](N1)C(=O)OCC(C)(C)C2 (atropisomer, axis not shown) [compound 8]
potency for inhibition of RAS-RAF complexes across multiple KRAS variants [2]: roughly similar potency
